Literature values in US7611833B2, “Yeast genes that affect viral replication” (priority 2001, dated 2009).
Like-named read-outs stand apart in the source and are kept apart here.

Assays:
poliovirus [1] = system: poliovirus
poliovirus [2] = system: poliovirus; remark: listed apart in the source
poliovirus [3] = system: poliovirus; remark: listed apart in the source
HeLa cells = HeLa cells treated with oleic acid

Row | Compound | RNA replication by the alphavirus SFV (alphavirus SFV) | RNA replication by poliovirus (poliovirus [1]) | Poliovirus RNA replication (poliovirus [2]) | In vitro translation (poliovirus [3]) | Poliovirus RNA replication (poliovirus [3]) | Synthesis of lipids (HeLa cells)
1 | C/C=C/C/C=C/CCC(=O)[C@H]1O[C@H]1C(N)=O [Cerulenin] | inhibits RNA replication | inhibits RNA replication | – | – | – | –
2 | CCCCCCCC/C=C\CCCCCCCC(=O)O [oleic acid] | – | – | disrupts poliovirus RNA replication | inhibited in vitro translation | disrupts poliovirus RNA replication | major changes in the synthesis of many lipids
